Test results taken from paper PMC9516332 (Frontiers in Oncology, 2022).
Like-named read-outs stand apart in the source and are kept apart here.

Experiments:
AP-1060 (ETV6-NTRK3) = assay: Cell viability assay; settings: read-out: IC50 in cell proliferation assay
134 cancer cell lines = assay: Cell viability assay (ATPlite, 72 hours), IC50 on cancer cell line panel

Compound `CCCS(=O)(=O)Nc1ccc(F)c(C(=O)c2c[nH]c3ncc(-c4ccc(Cl)cc4)cc23)c1F` [vemurafenib] has an IC50 (AP-1060 (ETV6-NTRK3)) of 31.6 µM, an IC50 (134 cancer cell lines; HEC-6, read-out: IC50 in cell proliferation assay, HEC-6 cell line (EGFR p.A289V)) of over 31.6 µM and an IC50 (134 cancer cell lines; Homo sapiens, 769-P, read-out: IC50 in cell proliferation assay, cell line 769-P) of over 31.6 µM. It also gave an IC50 (134 cancer cell lines; Homo sapiens, 786-0, read-out: IC50 in cell proliferation assay, cell line 786-O) of 25.1 µM, an IC50 (134 cancer cell lines; Homo sapiens, A 172, read-out: IC50 in cell proliferation assay, cell line A-172) of over 31.6 µM and an IC50 (134 cancer cell lines; Homo sapiens, A204, read-out: IC50 in cell proliferation assay, cell line A-204) of over 31.6 µM. It also gave an IC50 (134 cancer cell lines; Homo sapiens, A498, read-out: IC50 in cell proliferation assay, cell line A-498) of 21.6 µM, an IC50 (134 cancer cell lines; Homo sapiens, A549, read-out: IC50 in cell proliferation assay, cell line A-549) of 31.2 µM and an IC50 (134 cancer cell lines; Homo sapiens, A704, read-out: IC50 in cell proliferation assay, cell line A-704) of over 31.6 µM. The IC50 (134 cancer cell lines; Homo sapiens, A-375, read-out: IC50 in cell proliferation assay, cell line A-375 (BRAF p.V600E)) was 1.76 µM, the IC50 (134 cancer cell lines; Homo sapiens, A-427, read-out: IC50 in cell proliferation assay, cell line A-427) was over 31.6 µM and the IC50 (134 cancer cell lines; Homo sapiens, ACHN, read-out: IC50 in cell proliferation assay, cell line ACHN) was 20.1 µM. For the same compound, the IC50 (134 cancer cell lines; Homo sapiens, AN3-CA, read-out: IC50 in cell proliferation assay, cell line AN3-CA (FGFR2 p.N549K)) was over 31.6 µM, the IC50 (134 cancer cell lines; Homo sapiens, ASPC1, read-out: IC50 in cell proliferation assay, cell line AsPC-1) was over 31.6 µM and the IC50 (134 cancer cell lines; Homo sapiens, AU565, read-out: IC50 in cell proliferation assay, cell line AU565 (ERBB2 amplification)) was over 31.6 µM. It also gave an IC50 (134 cancer cell lines; Homo sapiens, BT-20, read-out: IC50 in cell proliferation assay, cell line BT-20) of over 31.6 µM, an IC50 (134 cancer cell lines; Homo sapiens, BT-474, read-out: IC50 in cell proliferation assay, cell line BT-474 (ERBB2 amplification)) of over 31.6 µM and an IC50 (134 cancer cell lines; Homo sapiens, BT-549, read-out: IC50 in cell proliferation assay, cell line BT-549) of 31.2 µM. For the same compound, the IC50 (134 cancer cell lines; Homo sapiens, BXPC-3, read-out: IC50 in cell proliferation assay, cell line BxPC-3) was 28.2 µM, the IC50 (134 cancer cell lines; Homo sapiens, C-33-A, read-out: IC50 in cell proliferation assay, cell line C-33 A) was over 31.6 µM and the IC50 (134 cancer cell lines; Homo sapiens, CAL-27, read-out: IC50 in cell proliferation assay, cell line CAL-27) was over 31.6 µM. For the same compound, the IC50 (134 cancer cell lines; Homo sapiens, CCF-STTG1, read-out: IC50 in cell proliferation assay, cell line CCF-STTG1) was over 31.6 µM, the IC50 (134 cancer cell lines; Homo sapiens, CCRF-CEM, read-out: IC50 in cell proliferation assay, cell line CCRF-CEM) was 27.6 µM and the IC50 (134 cancer cell lines; Homo sapiens, COLO 205, read-out: IC50 in cell proliferation assay, cell line COLO 205 (BRAF p.V600E)) was 0.744 µM. It also gave an IC50 (134 cancer cell lines; Homo sapiens, COLO-829, read-out: IC50 in cell proliferation assay, cell line COLO 829 (BRAF p.V600E)) of 2.22 µM, an IC50 (134 cancer cell lines; Homo sapiens, DLD-1, read-out: IC50 in cell proliferation assay, cell line DLD-1) of over 31.6 µM and an IC50 (134 cancer cell lines; Homo sapiens, DU-4475, read-out: IC50 in cell proliferation assay, cell line DU4475 (BRAF p.V600E)) of 1.83 µM. For the same compound, the IC50 (134 cancer cell lines; Homo sapiens, Daoy, read-out: IC50 in cell proliferation assay, cell line Daoy) was over 31.6 µM, the IC50 (134 cancer cell lines; Homo sapiens, DoTc2-4510, read-out: IC50 in cell proliferation assay, cell line DoTc2 4510) was over 31.6 µM and the IC50 (134 cancer cell lines; Homo sapiens, EOL1, read-out: IC50 in cell proliferation assay, cell line EoL-1 (FIP1L1-PDGFRA)) was 1.62 µM. The IC50 (134 cancer cell lines; Homo sapiens, FaDu, read-out: IC50 in cell proliferation assay, cell line FaDu) was over 31.6 µM, the IC50 (134 cancer cell lines; Homo sapiens, G-361, read-out: IC50 in cell proliferation assay, cell line G-361 (BRAF p.V600E)) was 3.25 µM and the IC50 (134 cancer cell lines; Homo sapiens, HCC827, read-out: IC50 in cell proliferation assay, cell line HCC827 (EGFR exon19del)) was over 31.6 µM. The IC50 (134 cancer cell lines; Homo sapiens, HCC4006, read-out: IC50 in cell proliferation assay, cell line HCC4006 (EGFR exon19del)) was over 31.6 µM, the IC50 (134 cancer cell lines; Homo sapiens, HCT-15, read-out: IC50 in cell proliferation assay, cell line HCT 15) was over 31.6 µM and the IC50 (134 cancer cell lines; Homo sapiens, HCT-116, read-out: IC50 in cell proliferation assay, cell line HCT 116) was over 31.6 µM. For the same compound, the IC50 (134 cancer cell lines; Homo sapiens, HEC-1, read-out: IC50 in cell proliferation assay, HEC-1 cell line) was over 31.6 µM, the IC50 (134 cancer cell lines; Homo sapiens, HEC-1B, read-out: IC50 in cell proliferation assay, HEC-1-B cell line (EGFR p.A864V)) was over 31.6 µM and the IC50 (134 cancer cell lines; Homo sapiens, HL-60, read-out: IC50 in cell proliferation assay, HL-60 cell line) was over 31.6 µM. It also gave an IC50 (134 cancer cell lines; Homo sapiens, HT, read-out: IC50 in cell proliferation assay, HT cell line) of over 31.6 µM, an IC50 (134 cancer cell lines; Homo sapiens, HT-1080, read-out: IC50 in cell proliferation assay, HT-1080 cell line) of 9.43 µM and an IC50 (134 cancer cell lines; Homo sapiens, Hs746T, read-out: IC50 in cell proliferation assay, Hs 746.T cell line (MET exon14skip + amplification)) of over 31.6 µM. It also gave an IC50 (134 cancer cell lines; Homo sapiens, Hs-578T, read-out: IC50 in cell proliferation assay, Hs 578T cell line) of 30.6 µM, an IC50 (134 cancer cell lines; Homo sapiens, HuTu80, read-out: IC50 in cell proliferation assay, HuTu 80 cell line) of over 31.6 µM and an IC50 (134 cancer cell lines; Homo sapiens, J82, read-out: IC50 in cell proliferation assay, J82 cell line) of over 31.6 µM. It also gave an IC50 (134 cancer cell lines; Homo sapiens, Jurkat E6.1, read-out: IC50 in cell proliferation assay, Jurkat E6.1 cell line) of 28.3 µM, an IC50 (134 cancer cell lines; Homo sapiens, K562, read-out: IC50 in cell proliferation assay, K-562 cell line) of over 31.6 µM and an IC50 (134 cancer cell lines; Homo sapiens, KATO III, read-out: IC50 in cell proliferation assay, KATO III cell line (FGFR2 amplification)) of 20.7 µM. For the same compound, the IC50 (134 cancer cell lines; Homo sapiens, KG-1, read-out: IC50 in cell proliferation assay, KG-1 cell line (FGFR1OP2-FGFR1)) was over 31.6 µM, the IC50 (134 cancer cell lines; Homo sapiens, KLE, read-out: IC50 in cell proliferation assay, KLE cell line) was over 31.6 µM and the IC50 (134 cancer cell lines; Homo sapiens, KMS-11, read-out: IC50 in cell proliferation assay, KMS-11 cell line (FGFR3 p.Y373C)) was 29.5 µM. It also gave an IC50 (134 cancer cell lines; Homo sapiens, KU812, read-out: IC50 in cell proliferation assay, Ku812 cell line) of 28.5 µM, an IC50 (134 cancer cell lines; Homo sapiens, Kasumi 1, read-out: IC50 in cell proliferation assay, Kasumi-1 cell line (KIT p.N822K)) of over 31.6 µM and an IC50 (134 cancer cell lines; Homo sapiens, LC-2-ad, read-out: IC50 in cell proliferation assay, LC-2/ad cell line (CCDC6-RET)) of over 31.6 µM. For the same compound, the IC50 (134 cancer cell lines; Homo sapiens, LNCaP-Clone-FGC, read-out: IC50 in cell proliferation assay, LNCaP clone FGC cell line) was over 31.6 µM, the IC50 (134 cancer cell lines; Homo sapiens, LS174T, read-out: IC50 in cell proliferation assay, LS174T cell line) was over 31.6 µM and the IC50 (134 cancer cell lines; Homo sapiens, LS-411N, read-out: IC50 in cell proliferation assay, LS411N cell line (BRAF p.V600E)) was 1.28 µM. It also gave an IC50 (134 cancer cell lines; Homo sapiens, LoVo, read-out: IC50 in cell proliferation assay, LoVo cell line) of over 31.6 µM, an IC50 (134 cancer cell lines; Homo sapiens, MCF7, read-out: IC50 in cell proliferation assay, MCF-7 cell line) of over 31.6 µM and an IC50 (134 cancer cell lines; Homo sapiens, MDA-MB-231, read-out: IC50 in cell proliferation assay, MDA-MB-231 cell line) of over 31.6 µM. The IC50 (134 cancer cell lines; Homo sapiens, MDA-MB-453, read-out: IC50 in cell proliferation assay, MDA-MB-453 cell line) was over 31.6 µM, the IC50 (134 cancer cell lines; Homo sapiens, MDA-MB-468, read-out: IC50 in cell proliferation assay, MDA-MB-468 cell line) was over 31.6 µM and the IC50 (134 cancer cell lines; Homo sapiens, MG-63, read-out: IC50 in cell proliferation assay, MG-63 cell line) was over 31.6 µM. The IC50 (134 cancer cell lines; Homo sapiens, MIA PaCa-2, read-out: IC50 in cell proliferation assay, MIA PaCa-2 cell line) was over 31.6 µM, the IC50 (134 cancer cell lines; Homo sapiens, MKN-45, read-out: IC50 in cell proliferation assay, MKN45 cell line (MET amplification)) was over 31.6 µM and the IC50 (134 cancer cell lines; Homo sapiens, MOLM-13, read-out: IC50 in cell proliferation assay, MOLM-13 cell line (FLT3 ITD)) was 8.9 µM.
